The values below come from patent US20220403032A1, “THERAPY FOR DIABETES USING STEM CELL MIGRATION AGENT” (Biozipcode, Inc., priority 2019, published 2022).

The assay has as its system diabetic patients (type 1 and type 2 diabetes mellitus). Nature of the assay: Research Plan 2: therapy of diabetes mellitus targeting a bone marrow-derived abnormal hematopoietic stem cell. The class given is in vivo, human. As to conditions: type 1 and type 2 diabetic patients; twelve weeks of therapy; predicted result.

For the substance insulin [insulin alone], the “Effect of eliminating an abnormal hematopoietic stem cell” value was “not eliminated”; the “Effect of healing diabetes mellitus” value is “not observed”; the “Therapeutic effect on a complication” value is on record as “observed to some extent, but the complication does not heal”.
